From patent US20140051722A1, “TOPICAL LFA-1 ANTAGONISTS FOR USE IN LOCALIZED TREATMENT OF IMMUNE RELATED DISORDERS” (SARCODE BIOSCIENCE INC., priority 2008, published 2014)

Legend:
MCP-1 = assay: SEB-stimulated cytokine release from human PBMC: MCP-1; type: cell-based; settings: SEB 1 ng/ml
IL-13 = assay: SEB-stimulated cytokine release from human PBMC: IL-13; type: cell-based; settings: SEB 1 ng/ml
IL-6 = assay: SEB-stimulated cytokine release from human PBMC: IL-6; type: cell-based; settings: SEB 1 ng/ml
IP-10 = assay: SEB-stimulated cytokine release from human PBMC: IP-10; type: cell-based; settings: SEB 1 ng/ml
IL-4 = assay: SEB-stimulated cytokine release from human PBMC: IL-4; type: cell-based; settings: SEB 1 ng/ml
IL-10 = assay: SEB-stimulated cytokine release from human PBMC: IL-10; type: cell-based; settings: SEB 1 ng/ml
GM-CSF = assay: SEB-stimulated cytokine release from human PBMC: GM-CSF; type: cell-based; settings: SEB 1 ng/ml
IL-1β = assay: SEB-stimulated cytokine release from human PBMC: IL-1β; type: cell-based; settings: SEB 1 ng/ml
IL-5 = assay: SEB-stimulated cytokine release from human PBMC: IL-5; type: cell-based; settings: SEB 1 ng/ml
IL-1α = assay: SEB-stimulated cytokine release from human PBMC: IL-1α; type: cell-based; settings: SEB 1 ng/ml
IL-12p40 = assay: SEB-stimulated cytokine release from human PBMC: IL-12p40; type: cell-based; settings: SEB 1 ng/ml
IL-3 = assay: SEB-stimulated cytokine release from human PBMC: IL-3; type: cell-based; settings: SEB 1 ng/ml
[1] = tested on: Plaque Psoriasis (PASI score); settings: >90% occupancy of LFA-1; cited from earlier work

## O=C(NC(Cc1cc(=O)[nH]c2ccccc12)C(=O)O)c1ccc(Cl)cc1 (stereo not shown) [Rebamipide]
MCP-1
  EC50: > 1000 µM
IL-13
  EC50: > 1000 µM
IL-6
  EC50: > 1000 µM
IP-10
  EC50: > 1000 µM
IL-4
  EC50: > 1000 µM
IL-10
  EC50: > 1000 µM
GM-CSF
  EC50: > 1000 µM
IL-1β
  EC50: > 1000 µM
IL-5
  EC50: > 1000 µM
IL-1α
  EC50: > 1000 µM
IL-12p40
  EC50: > 1000 µM
IL-3
  EC50: > 1000 µM

## efalizumab: anti-LFA-1 monoclonal antibody, clinical trial in plaque psoriasis
[1]
  clinical improvement in PASI score: greater than 50%
